Data taken from article PMC4306947, “Synthesis and Antiproliferative Activity of Thiazolyl-bis-pyrrolo[2,3-b]pyridines and Indolyl-thiazolyl-pyrrolo[2,3-c]pyridines, Nortopsentin Analogues” (Marine Drugs, 2015).

SMILES | melting point [°C]
c1cnc2[nH]cc(-c3csc(-c4c[nH]c5ncccc45)n3)c2c1 [Compound 1a, 3,3′-(1,3-Thiazole-2,4-diyl)bis(1H-pyrrolo[2,3-b]pyridine)] | 346 to 347
Cn1cc(-c2csc(-c3cn(C(=O)OC(C)(C)C)c4ccc(Br)cc34)n2)c2ccnc(Cl)c21 [Compound 3f, Tert-Butyl 5-bromo-3-[4-(7-chloro-1-methyl-1H-pyrrolo[2,3-c]pyridin-3-yl)-1,3-thiazol-2-yl]-1H-indole-1-carboxylate] | 257
Cn1cc(-c2nc(-c3cn(C)c4c(Cl)nccc34)cs2)c2cc(F)ccc21 [Compound 2h, 7-Chloro-3-[2-(5-fluoro-1-methyl-1H-indol-3-yl)-1,3-thiazol-4-yl]-1-methyl-1H-pyrrolo[2,3-c]pyridine] | 284 to 285
Cn1cc(-c2csc(-c3cn(C)c4ncccc34)n2)c2cccnc21 [Compound 1g, 3,3′-(1,3-Thiazole-2,4-diyl)bis(1-methyl-1H-pyrrolo[2,3-b]pyridine)] | 310 to 311
Cn1cc(-c2csc(-c3c[nH]c4ccc(F)cc34)n2)c2ccnc(Cl)c21 [Compound 2i, 7-Chloro-3-[2-(5-fluoro-1H-indol-3-yl)-1,3-thiazol-4-yl]-1-methyl-1H-pyrrolo[2,3-c]pyridine] | 284 to 285
CC(C)(C)OC(=O)n1cc(-c2nc(-c3c[nH]c4c(Cl)nccc34)cs2)c2ccccc21 [Compound 3a, Tert-Butyl 3-[4-(7-Chloro-1H-pyrrolo[2,3-c]pyridin-3-yl)-1,3-thiazol-2-yl]-1H-indole-1-carboxylate] | 225 to 226
COc1ccc2c(c1)c(-c1nc(-c3cn(C)c4c(Cl)nccc34)cs1)cn2C [Compound 2f, 7-Chloro-3-[2-(5-methoxy-1-methyl-1H-indol-3-yl)-1,3-thiazol-4-yl]-1-methyl-1H-pyrrolo[2,3-c]pyridine] | 231 to 232
Cn1cc(-c2csc(-c3cn(C(=O)OC(C)(C)C)c4ccccc34)n2)c2ccnc(Cl)c21 [Compound 3d, Tert-Butyl 3-[4-(7-chloro-1-methyl-1H-pyrrolo[2,3-c]pyridin-3-yl)-1,3-thiazol-2-yl]-1H-indole-1-carboxylate] | 279 to 280
Cn1cc(-c2nc(-c3c[nH]c4ncccc34)cs2)c2cccnc21 [Compound 1d, 1-Methyl-3-[4-(1H-pyrrolo[2,3-b]pyridin-3-yl)-1,3-thiazol-2-yl]-1H-pyrrolo[2,3-b]pyridine] | 278 to 279
Cn1cc(-c2nc(-c3c[nH]c4ncc(F)cc34)cs2)c2cccnc21 [Compound 1f, 3-[4-(5-Fluoro-1H-pyrrolo[2,3-b]pyridin-3-yl)-1,3-thiazol-2-yl]-1-methyl-1H-pyrrolo[2,3-b]pyridine] | 316
Cn1cc(-c2csc(-c3cn(C)c4ncccc34)n2)c2cc(F)cnc21 [Compound 1i, 5-Fluoro-1-methyl-3-[2-(1-methyl-1H-pyrrolo[2,3-b]pyridin-3-yl)-1,3-thiazol-4-yl]-1H-pyrrolo[2,3-b]pyridine] | 301 to 302
COc1ccc2c(c1)c(-c1nc(-c3c[nH]c4c(Cl)nccc34)cs1)cn2C(=O)OC(C)(C)C [Compound 3b, Tert-Butyl 3-[4-(7-chloro-1H-pyrrolo[2,3-c]pyridin-3-yl)-1,3-thiazol-2-yl]-5-methoxy-1H-indole-1-carboxylate] | 312 to 313
Cn1cc(-c2nc(-c3c[nH]c4c(Cl)nccc34)cs2)c2cc(Br)ccc21 [Compound 2c, 3-[2-(5-Bromo-1-methyl-1H-indol-3-yl)-1,3-thiazol-4-yl]-7-chloro-1H-pyrrolo[2,3-c]pyridine] | 374 to 375
CC(C)(C)OC(=O)n1cc(-c2nc(-c3c[nH]c4c(Cl)nccc34)cs2)c2cc(Br)ccc21 [Compound 3c, Tert-Butyl 5-bromo-3-[4-(7-chloro-1H-pyrrolo[2,3-c]pyridin-3-yl)-1,3-thiazol-2-yl]-1H-indole-1-carboxylate] | 241 to 242
Cn1cc(-c2nc(-c3c[nH]c4c(Cl)nccc34)cs2)c2cc(F)ccc21 [Compound 2d, 7-Chloro-3-[2-(5-fluoro-1-methyl-1H-indol-3-yl)-1,3-thiazol-4-yl]-1H-pyrrolo[2,3-c]pyridine] | 337 to 338
Cn1cc(-c2nc(-c3cn(C)c4c(Cl)nccc34)cs2)c2cc(Br)ccc21 [Compound 2g, 3-[2-(5-Bromo-1-methyl-1H-indol-3-yl)-1,3-thiazol-4-yl]-7-chloro-1-methyl-1H-pyrrolo[2,3-c]pyridine] | 249 to 250

SMILES | melting point [°C]
Brc1cnc2[nH]cc(-c3csc(-c4c[nH]c5ncccc45)n3)c2c1 [Compound 1b, 5-Bromo-3-[2-(1H-pyrrolo[2,3-b]pyridin-3-yl)-1,3-thiazol-4-yl)-1H-pyrrolo[2,3-b]pyridine] | 390 to 391
Cn1cc(C2(c3c[nH]c4ncccc34)CSC=N2)c2cccnc21 (stereo not shown) [Compound 1j, 1-Methyl-3-[4-(1H-pyrrolo[2,3-b]pyridin-3-yl)-1,3-thiazol-4-yl]-1H-pyrrolo[2,3-b]pyridine] | 303 to 304
Clc1nccc2c(-c3csc(-c4c[nH]c5ccccc45)n3)c[nH]c12 [Compound 4a, 7-Chloro-3-[2-(1H-indol-3-yl)-1,3-thiazol-4-yl]-1H-pyrrolo[2,3-c]pyridine] | 271 to 272
Cn1cc(-c2csc(-c3c[nH]c4ccccc34)n2)c2ccnc(Cl)c21 [Compound 4d, 7-Chloro-3-[2-(1H-indol-3-yl)-1,3-thiazol-4-yl]-1-methyl-1H-pyrrolo[2,3-c]pyridine] | 210 to 211
COc1ccc2c(c1)c(-c1nc(-c3c[nH]c4c(Cl)nccc34)cs1)cn2C [Compound 2b, 7-Chloro-3-[2-(5-methoxy-1-methyl-1H-indol-3-yl)-1,3-thiazol-4-yl]-1H-pyrrolo[2,3-c]pyridine] | 216 to 217
Fc1ccc2[nH]cc(-c3nc(-c4c[nH]c5c(Cl)nccc45)cs3)c2c1 [Compound 2j, 7-Chloro-3-[2-(5-fluoro-1H-indol-3-yl)-1,3-thiazol-4-yl]-1H-pyrrolo[2,3-c]pyridine] | 281 to 282
Cn1cc(-c2nc(-c3cn(C)c4c(Cl)nccc34)cs2)c2ccccc21 [Compound 2e, 7-Chloro-1-methyl-3-[2-(1-methyl-1H-indol-3-yl)-1,3-thiazol-4-yl]-1H-pyrrolo[2,3-c]pyridine] | 265 to 266
Cn1cc(-c2csc(-c3c[nH]c4ncccc34)n2)c2cc(F)cnc21 [Compound 1l, 5-Fluoro-1-methyl-3-[2-(1H-pyrrolo[2,3-b]pyridin-3-yl)-1,3-thiazol-4-yl]-1H-pyrrolo[2,3-b]pyridine] | 295 to 296
Cn1cc(-c2csc(-c3c[nH]c4ccc(Br)cc34)n2)c2ccnc(Cl)c21 [Compound 4f, 3-[2-(5-Bromo-1H-indol-3-yl)-1,3-thiazol-4-yl]-7-chloro-1-methyl-1H-pyrrolo[2,3-c]pyridine] | 273 to 274
Fc1cnc2[nH]cc(-c3csc(-c4c[nH]c5ncccc45)n3)c2c1 [Compound 1c, 5-Fluoro-3-[2-(1H-pyrrolo[2,3-b]pyridin-3-yl)-1,3-thiazol-4-yl]-1H-pyrrolo[2,3-b]pyridine] | 373 to 374
Cn1cc(-c2nc(-c3c[nH]c4c(Cl)nccc34)cs2)c2ccccc21 [Compound 2a, 7-Chloro-3-[2-(1-methyl-1H-indol-3-yl)-1,3-thiazol-4-yl]-1H-pyrrolo[2,3-c]pyridine] | 326 to 327
Cn1cc(-c2nc(-c3c[nH]c4ncc(Br)cc34)cs2)c2cccnc21 [Compound 1e, 3-[4-(5-Bromo-1H-pyrrolo[2,3-b]pyridin-3-yl)-1,3-thiazol-2-yl]-1-methyl-1H-pyrrolo[2,3-b]pyridine] | 311
COc1ccc2[nH]cc(-c3nc(-c4cn(C)c5c(Cl)nccc45)cs3)c2c1 [Compound 4e, 7-Chloro-3-[2-(5-methoxy-1H-indol-3-yl)-1,3-thiazol-4-yl]-1-methyl-1H-pyrrolo[2,3-c]pyridine] | 184 to 185
Cn1cc(-c2csc(-c3cn(C)c4ncccc34)n2)c2cc(Br)cnc21 [Compound 1h, 5-Bromo-1-methyl-3-[2-(1-methyl-1H-pyrrolo[2,3-b]pyridin-3-yl)-1,3-thiazol-4-yl]-1H pyrrolo[2,3-b]pyridine] | 308
COc1ccc2[nH]cc(-c3nc(-c4c[nH]c5c(Cl)nccc45)cs3)c2c1 [Compound 4b, 7-Chloro-3-[2-(5-methoxy-1H-indol-3-yl)-1,3-thiazol-4-yl]-1H-pyrrolo[2,3-c]pyridine] | 223 to 224
